Measurements taken from ChEMBL document CHEMBL1134880, “Quantum chemical- and 3-D-QSAR (CoMFA) studies of benzalacetones and 1,1,1-trifluoro-4-phenyl-3-buten-2-ones” (Bioorg Med Chem Lett, 2002).
pIC50: −log10 of the molar value.

system: Escherichia coli; assay: Inhibition of UV-induced mutagenesis in Escherichia coli WP2uvrA; assay type: functional, organism-based

SMILES | pIC50
COc1cccc(/C=C/C(C)=O)c1O | 3.17
O=C(/C=C/c1cccc([N+](=O)[O-])c1)C(F)(F)F | 4.77
COc1cccc(/C=C/C(C)=O)c1 | 3.15
COc1ccc(/C=C/C(=O)C(F)(F)F)cc1 | 4.13
N#Cc1ccc(/C=C/C(=O)C(F)(F)F)cc1 | 4.60
N#Cc1cccc(/C=C/C(=O)C(F)(F)F)c1 | 4.77
CC(=O)/C=C/c1cc(C)c(O)c(C)c1 | 2.96
CC(=O)/C=C/c1cccc(C#N)c1 | 3.55
CC(=O)/C=C/c1cccc(Cl)c1 | 3.37
CC(=O)/C=C/c1ccc(C)cc1 | 2.80
O=C(/C=C/c1cccc(Cl)c1)C(F)(F)F | 4.62
CC(=O)/C=C/c1ccc(C#N)cc1 | 3.77
CC(=O)/C=C/c1ccccc1O | 3.64
O=C(/C=C/c1ccc(Cl)cc1)C(F)(F)F | 4.80
CC(=O)/C=C/c1cccc(F)c1 | 3.59
CCc1ccc(/C=C/C(C)=O)cc1 | 2.92
CCOc1cccc(/C=C/C(C)=O)c1O | 2.92
CC(=O)/C=C/c1cccc([N+](=O)[O-])c1 | 3.82

SMILES | pIC50
CC(=O)/C=C/c1cccc(Br)c1 | 3.39
CC(=O)/C=C/c1ccc(Br)cc1 | 3.28
O=C(/C=C/c1ccccc1Cl)C(F)(F)F | 4.55
CC(=O)/C=C/c1ccc(O)c(O)c1 | 3.01
CC(=O)/C=C/c1ccccc1Br | 3.40
CC(=O)/C=C/c1cccc(C(F)(F)F)c1 | 3.66
CC(=O)/C=C/c1ccccc1F | 3.47
CC(=O)/C=C/c1cccc(C)c1O | 3.62
O=C(/C=C/c1ccccc1)C(F)(F)F | 4.52
CC(=O)/C=C/c1ccccc1Cl | 3.28
CC(=O)/C=C/c1cccc(C)c1 | 2.82
CC(=O)/C=C/c1ccc([N+](=O)[O-])cc1 | 4.08
COc1ccc(/C=C/C(C)=O)cc1 | 2.80
CC(=O)/C=C/c1ccc(C(F)(F)F)cc1 | 3.96
CC(=O)/C=C/c1ccc(Cl)cc1 | 3.49
CC(=O)/C=C/c1ccc(O)cc1 | 2.92
CC(=O)/C=C/c1ccc(F)cc1 | 3.20
